Test results taken from US20240218009A1, “NOVEL FORMS OF CYCLIC DINUCLEOTIDE COMPOUNDS” (Merck Sharp & Dohme LLC, priority 2021, published 2024).
Where two headings read alike, the source gives them in different places.

Conditions: pH 6.0, approx. 20-30 mg/mL, stirred at ambient conditions for minimum 16 hours, precipitate analysed by XRPD
Procedure: Equilibrium solubility experiments were conducted by mixing Compound A and the solution of interest at a concentration of approximately 20-30 mg/mL (Table 1). The solution of interest contained either 50 mM L-histidine or phosphate buffer (pH: 5.8<x<6.3). Additional Compound A was added until a cloudy solution was maintained. The samples were stirred at ambient conditions for a minimum of 16 hours. At the conclusion of the solubility measurements, solutions were clarified by centrifugation. The wet precipitated material was transferred to a 96-well transmission XRPD sample plate and allowed to dry to room temperature prior to XRPD analysis.
X-ray powder diffraction patterns for the solid phases of Compound A were generated on a Philips Analytical X'Pert PRO X-ray Diffraction System with a high throughput stage. A Cu K-Alpha radiation source was used. […] The experiments were analyzed at ambient conditions.

Nc1nc2c(ncn2[C@@H]2O[C@@H]3CO[P@@](O)(=S)O[C@H]4[C@H](F)[C@H](n5cnc6c(N)ncnc65)O[C@@H]4CO[P@@](O)(=S)O[C@@H]2[C@@H]3F)c(=O)[nH]1.[Na] [Crystalline, mono-sodium salt, Monosodium salt of 2-amino-9-[(2R,5R,7R,8S,10R,12aR,14R,15S,15aR,16R)-14-(6-amino-9H-purin-9-yl)-15,16-difluoro-2,10-dihydroxy-2,10-disulfidooctahydro-12H-5,8-methanofuro [3,2-1][1,3,6,9,11,2,10]pentaoxa-diphosphacyclotetradecin-7-yl]-1,9-dihydro-6H-purin-6-one]
Compound A Terminal Phase (50 mM L-histidine buffer): Form 1
Compound A Terminal Phase (50 mM phosphate buffer): Crystalline mono-
